Reference: US20200009163A1, “POLYPHOSPHATES AS INHIBITORS OF CALCIUM CRYSTALLIZATION” (priority 2017, published 2020)

Assays:
[1] = Bulk calcium oxalate crystallization, optical microscope images and crystal frequency; details: for calcium oxalate crystals observed (optical microscope): control crystals approximately 25-50 μm along c-axis
Method: (§1) FIG. 4A depicts optical microscope images showing results of calcium oxalate crystallization from a control solution and solutions including LTPP Na5P3O10 at concentrations of 5 μM and 15 μM. FIG. 4B depicts effects of Na5P3O10 concentrations on calcium oxalate crystal frequency. […] Crystals formed from the control solution were approximately 25-50 μm in size as measured along the c-axis, which is the longest dimension.
as §1, with “FIG. 5A” for “FIG. 4A”, “including HMP (NaPO3)6” for “including LTPP Na5P3O10”, “of 0.3” for “of 5”, “and 0.7” for “and 15”, “FIG. 5B” for “FIG. 4B”, “of (NaPO3)6” for “of Na5P3O10”
FIG. 6 depicts optical microscope images showing results of calcium oxalate crystallization during bulk studies at different concentrations of LTPP. The leftmost image is a representative control crystal.

[2] = ISE (ion selective electrode) measurement of inhibition of COM crystallization from aqueous solution; details: FIG. 3
Source text: FIG. 3 depicts experimental results obtained using an example of a LTPP compound (Na5P3O10) and an example of a HMP compound ((NaPO3)6) to inhibit crystallization of […] from aqueous solution. Results for a citrate compound (Na3C6H5O7), which is commonly used in the treatment of kidney stones, is presented for purposes of comparison. In FIG. 3, the x-axis represents a measure of concentration (micromolar (μM) concentration on a logarithmic scale) of the inhibitor present in the solution. The y-axis represents percent inhibition (% reduction in the rate of crystallization) of COM crystallization as compared to a control solution having no inhibitor compounds therein. The effect of the inhibitors on COM growth was estimated using ISE (ion selective electrode) measurements. This measurement technique enables quantification of the extent of inhibition on calcium crystal growth as a function of inhibitor concentration. More specifically, ISE measures free calcium concentration in solution as a function of time to measure the rate of crystallization in the absence and presence of inhibitor. This technique can be used to measure the effectiveness of the polyphosphates and polyphosphate derivatives at inhibiting or modifying calcium crystal growth. The values of “% inhibition” that were obtained by this technique, and presented in FIG. 3 for the different combinations of inhibitor type and concentration, reflect rates of crystallization that have been normalized with respect to the rate of crystallization for a control solution (e.g., inhibitor concentration of zero). The % inhibition refers to the averages of at least 3 separate experiments. The solutions tested were aqueous solutions of calcium chloride (CaCl2)), sodium oxalate (Na2C2O4), and sodium chloride (NaCl). The tested solutions further included the inhibitor/modifier compound at the stated concentration level.

## (NaPO3)6 [HMP]
[1]; 0.7 μM inhibitor, FIG. 5A
  calcium oxalate crystals observed (optical microscope): Very small crystals
[1]; higher HMP solution concentrations (above 0.7 μM), FIG. 5B
  calcium oxalate crystal frequency: no definitive crystals being observed
[2]; inhibitor concentration of less than about 1 μM, vs control solution without inhibitor
  percent inhibition (% reduction in the rate of crystallization) of COM crystallization: approximately 100%

## Na5P3O10 [LTPP]
[1]; 5 μM and 15 μM inhibitor vs control crystal, FIG. 6
  crystal morphology (habit) of calcium oxalate crystals: morphology of the crystals change with increasing inhibitor concentration
[1]; 15 μM inhibitor, FIG. 4A
  calcium oxalate crystals observed (optical microscope): very small crystals
[1]; higher LTPP solution concentrations (above 15 μM), FIG. 4B
  calcium oxalate crystal frequency: no definitive crystals being observed
[2]; inhibitor concentration range of about 5 μM to about 125 μM, vs control solution without inhibitor
  percent inhibition (% reduction in the rate of crystallization) of COM crystallization: 30-100%

## O=C(O)CC(O)(CC(=O)O)C(=O)O [citrate, Na3C6H5O7, reference compound]
[2]; inhibitor concentration of around 320 μM, maximum reached even at much higher concentrations
  percent inhibition (% reduction in the rate of crystallization) of COM crystallization: about 60%
